According to PubChem BioAssay (NCI):
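A five-concentration, 48-hour dose response in 96-well plates underlies each endpoint, interpolated linearly between surrounding concentrations. Abbreviation: GI50, concentration required for 50% inhibition of growth. The concentration for full growth arrest is given as TGI.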

Key:
Assay in all cases: NCI anticancer screen, dose series, 48 h
A498 renal = system: A498 renal
786-0 renal = system: 786-0 renal
DU-145 prostate = system: DU-145 prostate
CAKI-1 renal = system: CAKI-1 renal
SNB-19 CNS = system: SNB-19 CNS
LOX IMVI melanoma = system: LOX IMVI melanoma
MALME-3M melanoma = system: MALME-3M melanoma
NCI-H522 lung = system: NCI-H522 lung
SK-MEL-2 melanoma = system: SK-MEL-2 melanoma
HOP-62 NSCLC = system: HOP-62 NSCLC
NCI-H460 lung = system: NCI-H460 lung
IGROV1 ovarian = system: IGROV1 ovarian
COLO 205 colon = system: COLO 205 colon
OVCAR-4 ovarian = system: OVCAR-4 ovarian
SK-MEL-28 melanoma = system: SK-MEL-28 melanoma
UACC-62 melanoma = system: UACC-62 melanoma
SR leukemia = system: SR leukemia
NCI/ADR-RES ovarian = system: NCI/ADR-RES ovarian
HCC-2998 colon = system: HCC-2998 colon
TK-10 renal = system: TK-10 renal
MCF7 breast = system: MCF7 breast
ACHN renal = system: ACHN renal
PC-3 prostate = system: PC-3 prostate
HCT-15 colon = system: HCT-15 colon
SK-OV-3 ovarian = system: SK-OV-3 ovarian
EKVX NSCLC = system: EKVX NSCLC
OVCAR-5 ovarian = system: OVCAR-5 ovarian
UACC-257 melanoma = system: UACC-257 melanoma
HOP-92 NSCLC = system: HOP-92 NSCLC

## COc1ccccc1Nc1cc(O)c2c(=O)cc(-c3ccccc3)oc2c1
A498 renal
  GI50: 3.08 µM
  TGI: 13.9 µM
786-0 renal
  GI50: 5.15 µM
  TGI: 27 µM
DU-145 prostate
  GI50: 4.35 µM
  TGI: 16.4 µM
CAKI-1 renal
  GI50: 4.24 µM
  TGI: 20.3 µM
SNB-19 CNS
  GI50: 2990 nM
  TGI: 15.7 µM
LOX IMVI melanoma
  GI50: 3.41 µM
  TGI: > 100 µM
MALME-3M melanoma
  GI50: 2130 nM
  TGI: 11.9 µM
NCI-H522 lung
  GI50: 2670 nM
  TGI: 27.1 µM
SK-MEL-2 melanoma
  GI50: 5.62 µM
  TGI: 34.2 µM
HOP-62 NSCLC
  GI50: 3.55 µM
  TGI: > 100 µM
NCI-H460 lung
  GI50: 3.37 µM
  TGI: 12 µM
IGROV1 ovarian
  GI50: 2980 nM
  TGI: 18.5 µM
COLO 205 colon
  GI50: 9.92 µM
  TGI: > 100 µM
OVCAR-4 ovarian
  GI50: 4.49 µM
  TGI: 47.8 µM
SK-MEL-28 melanoma
  GI50: 3.64 µM
  TGI: 25.8 µM
UACC-62 melanoma
  GI50: 2390 nM
  TGI: 12.8 µM
SR leukemia
  GI50: 529 nM
  TGI: > 100 µM
NCI/ADR-RES ovarian
  GI50: 1990 nM
  TGI: 18 µM
HCC-2998 colon
  GI50: 6.07 µM
  TGI: > 100 µM
TK-10 renal
  GI50: 10.4 µM
  TGI: 28.6 µM
MCF7 breast
  GI50: 1630 nM
  TGI: > 100 µM
ACHN renal
  GI50: 3.38 µM
  TGI: 13 µM
PC-3 prostate
  GI50: 5.13 µM
  TGI: 41.6 µM
HCT-15 colon
  GI50: 1650 nM
  TGI: > 100 µM
SK-OV-3 ovarian
  GI50: 3.57 µM
  TGI: 17.9 µM
EKVX NSCLC
  GI50: 4.83 µM
  TGI: 56 µM
OVCAR-5 ovarian
  GI50: 4.82 µM
  TGI: 27.3 µM
UACC-257 melanoma
  GI50: 6.72 µM
  TGI: 63.5 µM
HOP-92 NSCLC
  GI50: 3.76 µM
